Test results: ChEMBL document CHEMBL1641485, “Chromone 3-phenylcarboxamides as potent and selective MAO-B inhibitors” (Bioorg Med Chem Lett, 2011); call rule not given here

Assays:
[1] = target: T1, Amine oxidase [flavin-containing] A (Homo sapiens, UniProt P21397); assay: Inhibition of human recombinant MAOA expressed in baculovirus-infected BTI insect cells at 100 uM after 15 mins by fluorimetric assay; details: 0.25 h
T1 sequence (P21397 whole entry): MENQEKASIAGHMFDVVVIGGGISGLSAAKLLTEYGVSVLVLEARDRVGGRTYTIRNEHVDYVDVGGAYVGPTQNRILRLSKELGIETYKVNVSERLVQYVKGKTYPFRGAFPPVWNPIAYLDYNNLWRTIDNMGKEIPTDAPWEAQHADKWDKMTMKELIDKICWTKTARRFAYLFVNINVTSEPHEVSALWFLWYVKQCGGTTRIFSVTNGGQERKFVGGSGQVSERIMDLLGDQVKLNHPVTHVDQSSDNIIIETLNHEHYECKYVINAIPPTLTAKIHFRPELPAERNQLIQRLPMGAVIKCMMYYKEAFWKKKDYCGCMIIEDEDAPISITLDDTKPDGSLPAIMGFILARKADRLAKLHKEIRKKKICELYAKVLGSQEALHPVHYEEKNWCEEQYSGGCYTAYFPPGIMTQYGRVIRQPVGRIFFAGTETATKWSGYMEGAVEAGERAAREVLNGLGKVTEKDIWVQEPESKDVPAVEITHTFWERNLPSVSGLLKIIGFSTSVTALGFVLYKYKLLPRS

[2] = target: T2, Amine oxidase [flavin-containing] B (Homo sapiens, UniProt P27338); assay: Inhibition of human recombinant MAOB expressed in baculovirus-infected BTI insect cells at 100 uM after 15 mins by fluorimetric assay; details: 0.25 h
T2 sequence (P27338 whole entry): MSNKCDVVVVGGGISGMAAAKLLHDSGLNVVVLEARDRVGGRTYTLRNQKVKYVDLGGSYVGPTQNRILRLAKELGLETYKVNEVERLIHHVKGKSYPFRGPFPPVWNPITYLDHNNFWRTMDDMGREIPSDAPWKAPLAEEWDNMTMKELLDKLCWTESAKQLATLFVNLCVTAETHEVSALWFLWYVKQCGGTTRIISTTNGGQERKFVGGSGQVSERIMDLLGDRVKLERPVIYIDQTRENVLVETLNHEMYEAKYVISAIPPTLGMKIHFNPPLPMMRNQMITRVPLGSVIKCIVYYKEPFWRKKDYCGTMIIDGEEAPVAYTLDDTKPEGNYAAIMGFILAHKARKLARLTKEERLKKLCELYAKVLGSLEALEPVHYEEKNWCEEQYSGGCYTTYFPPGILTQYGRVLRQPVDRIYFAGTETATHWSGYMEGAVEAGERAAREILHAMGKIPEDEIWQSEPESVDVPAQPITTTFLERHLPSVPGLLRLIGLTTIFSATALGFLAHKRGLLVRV

[3] = target: T2, Amine oxidase [flavin-containing] B; assay: Inhibition of human recombinant MAOB expressed in baculovirus-infected BTI insect cells after 15 mins by fluorimetric assay; type: cell-based
Homo sapiens = organism: Homo sapiens; assay: Selectivity ratio of IC50 for human recombinant MAOA to IC50 for human recombinant MAOB

SMILES | inhibition (INH) [1] | inhibition (INH) [2] | IC50 [3] | Ratio IC50 (Homo sapiens)
CSc1ccc(NC(=O)c2cc(=O)c3ccccc3o2)cc1 | Not Active | Not Active | – | –
O=C(Nc1ccc(I)cc1)c1cc(=O)c2ccccc2o1 | Not Active | Not Active | – | –
Cc1ccc(NC(=O)c2cc(=O)c3ccccc3o2)cc1 | Not Active | Not Active | – | –
CSc1ccc(NC(=O)c2coc3ccccc3c2=O)cc1 | Not Active | – | 120 nM | > 833
COc1ccc(NC(=O)c2cc(=O)c3ccccc3o2)cc1 | Not Active | Not Active | – | –
COc1ccc(NC(=O)c2coc3ccccc3c2=O)cc1 | Not Active | – | 450 nM | > 222
O=C(Nc1ccccc1)c1cc(=O)c2ccccc2o1 | Not Active | Not Active | – | –
